{"source": "patent US12540161B2", "about": "“Linkers” (BicycleTx Limited, priority 2020, dated 2026)", "key": {"HT1080 cells": {"test_system": "HT1080 cells", "details": "1 mg/kg and 3 mg/kg", "quoted_text": "For Cell-Derived Xenograft (CDX) models, mice (balb/c nude, female, 18-23 g at study start) were inoculated with HT1080 cells (5.0×10^6 cells/mouse in 0.2 ml PBS to the right flank). Animals were randomized when the average tumour volume reached the pre-designated start size. Group size is n=4. All studies included a vehicle-treated control.\nDosing was conducted by intravenous bolus. Tumor volume was measured in two dimensions using a caliper, and the volume was expressed in mm^3 using the formula: V=0.5 a×b^2 where a and b are the long and short diameters of the tumor, respectively."}, "in vivo": {"experiment": "in vivo", "details": "male, CD-1, mouse, plasma, intravenous", "quoted_text": "Male CD-1 mice were dosed with each Bicycle Conjugate formulated in 25 mM histidine HCl, 10% sucrose pH 7 via tail vein injection. Serial bleeding (about 80 μL blood/time point) was performed via submadibular or saphenous vein at each time point. All blood samples were immediately transferred into prechilled microcentrifuge tubes containing 2 μL K2-EDTA (0.5M) as anti-coagulant and placed on wet ice. Blood samples were immediately processed for plasma by centrifugation at approximately 4° C., 3000 g. The precipitant including internal standard (350 μL) was immediately added into the 35 μL plasma sample, mixed well and centrifuged at 3220 g, 4° C. for 15 minutes. The supernatant was transferred into pre-labeled polypropylene microcentrifuge tubes, and then quick-frozen over dry ice. The samples were stored at 70° C. or below as needed until analysis. Supernatant samples were mixed with 50 μL water, vortexed well and centrifuged at 3220 g, 4° C. for 15 minutes. A sample of the supernatant was injected for LC-MS/MS analysis using an Acquity UPLC with AB Sciex 6500+ Triple Quad MS in positive ion mode to determine the concentrations of Bicycle Conjugate and released payload. Plasma concentration versus time data were analyzed by non-compartmental approaches using the Phoenix WinNonlin 6.3 software program. C0, Cl, Vdss, T1/2, AUC(0-inf), MRT(0-last), MRT(0-inf) nd graphs of plasma concentration versus time profile were reported."}, "in vitro [1]": {"experiment": "in vitro", "details": "mouse, plasma"}, "in vitro [2]": {"experiment": "in vitro", "details": "rat, plasma, pH 7.4", "quoted_text": "(§1) Pooled frozen plasma was thawed in a water bath at 37° C. Plasma was centrifuged at 4000 rpm for 5 min and the clots were removed if any. The pH will be adjusted to 7.4±0.1 if required. 1 mM stock solution was prepared with DMSO. Propantheline (positive control) was prepared by making a 100 μM working solution by diluting 5 μL of the stock solution (10 mM) with 495 μL ultra pure water. 100 μM working solutions of test compounds were made up by diluting 10 μL of the stock solution (1 mM) with 90 μL DMSO. 98 μL of blank plasma was spiked with 2 μL of dosing solution (100 μM) to achieve 2 μM of the final concentration in duplicate and samples were incubated at 37° C. in a water bath. At each time point (0, 1, 2, 4, 6 and 24 hr), 400 μL of 200 ng/mL tolbutamide and labetalol in 100% MeOH was added and mixed thoroughly to precipitate proteins. Sample plates were centrifuged at 4,000 rpm for 15 min. An aliquot of supernatant (150 μL) was transferred from each well before submitting for LC-MS/MS analysis.\n(§2) The % remaining test compound after incubation in plasma was calculated using following equation: Remaining=100×(PAR at appointed incubation time/PAR at T0 time)\n(§3) where PAR is the peak area ratio of analyte versus internal standard (IS).\n(§4) The appointed incubation time points are T0 (0 hr), Tn (n=0, 1, 2, 4, 6, 24 hr). The half-life (T½) was calculated from a log linear plot of concentration versus time.\n(§5) When the % remaining value at the maximal incubation time, which was 24 hr in this study, was higher than 75%, it is considered to be within the acceptable experimental variation."}, "[3]": {"details": "rat"}, "Cathepsin B": {"biological_target": "Cathepsin B (Homo sapiens, UniProt P07858)", "experiment": "Cathepsin B (CatB) cleavage assay", "assay_type": "biochemical", "details": "BTCs"}, "HT1080 xenograft": {"test_system": "HT1080 xenograft", "experiment": "In vivo efficacy study in the HT1080 xenograft model in BALB/c nude mice (Example 6)", "details": "for Tumor volume, day 0 / Tumor volume, day 2 / Tumor volume, day 4 / Tumor volume, day 6 / Tumor volume, day 9 / T/C (%) / TGI (%) / Tumor volume, day 11: iv, qw; for Tumor volume, day 0: day 0 after the start of treatment; for Tumor volume, day 0 / Tumor volume, day 2 / Tumor volume, day 4 / Tumor volume, day 6 / Tumor volume, day 9 / Tumor volume, day 11: mean ± SEM; for T/C (%) / TGI (%) / Tumor volume, day 11: day 11", "experimental": "• Species: Mus Musculus • Strain: BALB/c nude • Age: 6-8 weeks • Sex: female • Body weight: 18-22 g • Number of animals: 35 mice plus spare • Animal supplier: Shanghai Lingchang Biotechnology Experimental Animal Co., LTD. Housing Condition • The mice were kept in individual ventilation cages at constant temperature and humidity with 5 animals in each cage. • Temperature: 20˜26° C. • Humidity 40-70%. • Cages: Made of polycarbonate. The size is 375 mm×215 mm×180 mm.\nThe HT1080 cells were maintained in EMEM medium supplemented with 10% heat inactivated fetal bovine serum at 37° C. in an atmosphere of 5% CO2 in air. The tumor cells were routinely sub-cultured twice weekly. The cells growing in an exponential growth phase were harvested and counted for tumor inoculation.\nEach mouse was inoculated subcutaneously at the right flank with HT1080 tumor cells (5×10^6) in 0.2 ml of PBS for tumor development. Animals were randomized when the average tumor volume reached 320 mm^3 for efficacy study. The test article administration and the animal numbers in each group were shown in the experimental design table.\nAll the procedures related to animal handling, care and the treatment in the study were performed according to the guidelines approved by the Institutional Animal Care and Use Committee (IACUC) of WuXi AppTec, following the guidance of the Association for Assessment and Accreditation of Laboratory Animal Care (AAALAC). At the time of routine monitoring, the animals were checked for any effects of tumor growth and treatments on normal behavior such as mobility, food and water consumption (by observation only), body weight gain/loss, eye/hair matting and any other abnormal effect as stated in the protocol. Death and observed clinical signs were recorded on the basis of the numbers of animals within each subset.\nThe major endpoint was to see if the tumor growth could be delayed or mice could be cured. Tumor volume was measured three times weekly in two dimensions using a caliper, and the volume was expressed in mm^3 using the formula: V=0.5 a×b^2 where a and b are the long and short diameters of the tumor, respectively. The tumor size was then used for calculations of T/C value. The T/C value (in percent) is an indication of antitumor effectiveness; T and C are the mean volumes of the treated and control groups, respectively, on a given day.\nTGI was calculated for each group using the formula: TGI (%)=[1−(Ti−T0)/(Vi−Vo)]×100; Ti is the average tumor volume of a treatment group on a given day, T0 is the average tumor volume of the treatment group on the day of treatment start, Vi is the average tumor volume of the vehicle control group on the same day with Ti, and V0 is the average tumor volume of the vehicle group on the day of treatment start.\nSummary statistics, including mean and the standard error of the mean (SEM), were provided for the tumor volume of each group at each time point.\nStatistical analysis of difference in tumor volume among the groups was conducted on the data obtained at the best therapeutic time point after the final dose.\nA one-way ANOVA was performed to compare tumor volume among groups, and when a significant F-statistics (a ratio of treatment variance to the error variance) was obtained, comparisons between groups were carried out with Games-Howell test. A two-tailed T test was performed to compare tumor volume between two groups. All data were analyzed using GraphPad 5.0. P<0.05 was considered to be statistically significant."}, "in vitro [4]": {"experiment": "in vitro", "details": "cynomolgus monkey, plasma"}, "in vitro [5]": {"experiment": "in vitro", "details": "human, plasma, pH 7.4", "quoted_text": "as §1, §2, §3, §4, §5"}, "[6]": {"details": "7 animals of group 5 and 6 treated with BCY10984 45 μM, average starting tumor size 1291 mm^3"}}, "note": "Several values for one entry are separate records, joined by “and”; a condition that tells them apart may be missing. Equal values may be shown once.", "data": [{"smiles": "CC[C@H](C)[C@@H]([C@@H](CC(=O)N1CCC[C@H]1[C@H](OC)[C@@H](C)C(=O)N[C@H](C)[C@@H](O)c1ccccc1)OC)N(C)C(=O)[C@@H](NC(=O)[C@H](C(C)C)N(C)C(=O)OCc1ccc(NC(=O)[C@H](CCCNC(N)=O)NC(=O)[C@H](Cc2cccc3ccccc23)NC(=O)[C@H](CCC(=O)O)NC(=O)Cn2cc(CCC(=O)NCCC(=O)N(C)CC(=O)N(C)CC(=O)N(C)CC(=O)N(C)CC(=O)N(C)CC(=O)N(C)CC(=O)N(C)CC(=O)N(C)CC(=O)N(C)CC(=O)N(C)CC(=O)N[C@@H](C)C(=O)N[C@H]3CN(C)Cc4cc5cc(c4)CN(C)C[C@@H](C(N)=O)NC(=O)[C@H](C(C)(C)C)NC(=O)[C@H](CC(=O)O)NC(=O)[C@H](Cc4ccc(O)cc4)NC(=O)[C@H](Cc4ccccc4)NC(=O)[C@H](CC(=O)O)NC(=O)[C@H](CCC(=O)O)NC(=O)[C@H](CSC5)NC(=O)[C@@H](C)NC(=O)[C@H](Cc4cccc5ccccc45)NC(=O)[C@H](CCC(=O)O)NC(=O)[C@H](CC(N)=O)NC(=O)[C@@H](C)NC3=O)nn2)cc1)C(C)C", "note": "[BCY10984, MMAE-PAB-(Cit-1Nal-Glu)-BCY3900]", "values": [{"measurement": "Body weights of the animals", "setting": "HT1080 cells", "value": "not affected"}, {"measurement": "C0", "setting": "in vivo", "value": 112, "unit": "µg/mL"}, {"measurement": "Vd", "setting": "in vivo", "value": 0.09, "unit": "L/kg"}, {"measurement": "clearance", "setting": "in vivo", "value": 0.2, "unit": "mL/min/kg"}, {"measurement": "half-life", "setting": "in vivo", "value": 453, "unit": "min"}, {"measurement": "fraction unbound", "setting": "in vitro [1]", "value": 0.002}, {"measurement": "half-life at 2 μM", "setting": "in vitro [2]", "value": 2.24, "unit": "days"}, {"measurement": "AUC ratio", "setting": "[3]", "value": 0.0000936}, {"measurement": "% Parent remaining after incubation with CatB, 0 h", "setting": "Cathepsin B; 0 h", "value": 100, "unit": "%"}, {"measurement": "% Parent remaining after incubation with CatB, 1 h", "setting": "Cathepsin B; 1 h", "value": 94.498, "unit": "%"}, {"measurement": "% Parent remaining after incubation with CatB, 2 h", "setting": "Cathepsin B; 2 h", "value": 83.5, "unit": "%"}, {"measurement": "% Parent remaining after incubation with CatB, 4 h", "setting": "Cathepsin B; 4 h", "value": 39.2, "unit": "%"}, {"measurement": "% Parent remaining after incubation with CatB, 6 h", "setting": "Cathepsin B; 6 h", "value": 33.4, "unit": "%"}, {"measurement": "% Parent remaining after incubation with CatB, 24 h", "setting": "Cathepsin B; 24 h", "value": 32.5, "unit": "%"}, {"measurement": "half-life at 40 μM", "setting": "Cathepsin B; read-out: CatB t1/2 (converted)", "value": 198, "unit": "min"}, {"measurement": "anti-tumor efficacy compared with BCY12951", "setting": "HT1080 xenograft; 5 μM", "value": "comparable anti-tumor efficacy"}, {"measurement": "anti-tumor activity", "setting": "HT1080 xenograft; 5 μM, 15 μM and 45 μM qw", "value": "dose-dependent anti-tumor activity"}, {"measurement": "Tumor volume, day 0", "setting": "HT1080 xenograft; 5 μM", "value": "320 ± 48", "unit": "mm^3"}, {"measurement": "Tumor volume, day 2", "setting": "HT1080 xenograft; 5 μM", "value": "508 ± 49", "unit": "mm^3"}, {"measurement": "Tumor volume, day 4", "setting": "HT1080 xenograft; 5 μM", "value": "681 ± 64", "unit": "mm^3"}, {"measurement": "Tumor volume, day 6", "setting": "HT1080 xenograft; 5 μM", "value": "750 ± 50", "unit": "mm^3"}, {"measurement": "Tumor volume, day 9", "setting": "HT1080 xenograft; 5 μM", "value": "958 ± 53", "unit": "mm^3"}, {"measurement": "T/C (%)", "setting": "HT1080 xenograft; 5 μM", "value": 72.6, "unit": "%"}, {"measurement": "TGI (%)", "setting": "HT1080 xenograft; 5 μM", "value": 33.6, "unit": "%"}, {"measurement": "Tumor volume, day 11", "setting": "HT1080 xenograft; 5 μM", "value": "1257 mm^3 and 1257 ± 95 mm^3"}, {"measurement": "anti-tumor efficacy compared with BCY12951 at the same molar dosage", "setting": "HT1080 xenograft; 15 μM and 45 μM", "value": "more potent efficacy"}, {"measurement": "Tumor volume, day 0", "setting": "HT1080 xenograft; 15 μM", "value": "321 ± 43", "unit": "mm^3"}, {"measurement": "Tumor volume, day 2", "setting": "HT1080 xenograft; 15 μM", "value": "519 ± 76", "unit": "mm^3"}, {"measurement": "Tumor volume, day 4", "setting": "HT1080 xenograft; 15 μM", "value": "428 ± 88", "unit": "mm^3"}, {"measurement": "Tumor volume, day 6", "setting": "HT1080 xenograft; 15 μM", "value": "378 ± 128", "unit": "mm^3"}, {"measurement": "Tumor volume, day 9", "setting": "HT1080 xenograft; 15 μM", "value": "304 ± 112", "unit": "mm^3"}, {"measurement": "T/C (%)", "setting": "HT1080 xenograft; 15 μM", "value": 16.6, "unit": "%"}, {"measurement": "TGI (%)", "setting": "HT1080 xenograft; 15 μM", "value": 102.3, "unit": "%"}, {"measurement": "Tumor volume, day 11", "setting": "HT1080 xenograft; 15 μM", "value": "288 mm^3 and 288 ± 126 mm^3"}, {"measurement": "tumor eradication", "setting": "HT1080 xenograft; 45 μM qw", "value": "eradicated the tumors completely on day 16"}, {"measurement": "Tumor volume, day 0", "setting": "HT1080 xenograft; 45 μM", "value": "320 ± 32", "unit": "mm^3"}, {"measurement": "Tumor volume, day 2", "setting": "HT1080 xenograft; 45 μM", "value": "489 ± 68", "unit": "mm^3"}, {"measurement": "Tumor volume, day 4", "setting": "HT1080 xenograft; 45 μM", "value": "285 ± 90", "unit": "mm^3"}, {"measurement": "Tumor volume, day 6", "setting": "HT1080 xenograft; 45 μM", "value": "139 ± 46", "unit": "mm^3"}, {"measurement": "Tumor volume, day 9", "setting": "HT1080 xenograft; 45 μM", "value": "29 ± 10", "unit": "mm^3"}, {"measurement": "T/C (%)", "setting": "HT1080 xenograft; 45 μM", "value": 0.9, "unit": "%"}, {"measurement": "TGI (%)", "setting": "HT1080 xenograft; 45 μM", "value": 121.6, "unit": "%"}, {"measurement": "Tumor volume, day 11", "setting": "HT1080 xenograft; 45 μM", "value": "15 mm^3 and 15 ± 6 mm^3"}, {"measurement": "tumor response after the first dosing", "setting": "HT1080 xenograft; [6]", "value": "sudden tumor regression"}, {"measurement": "tumor response after the second dosing", "setting": "HT1080 xenograft; [6]", "value": "all tumors were eradicated completely"}, {"measurement": "tumor growth (FIG. 17)", "setting": "HT1080 xenograft; mice from Group 5 and 6 dosed with 45 μM BCY10984", "value": "potent inhibition of tumor growth"}, {"measurement": "fraction unbound", "setting": "in vitro [4]", "value": 0.092}, {"measurement": "half-life at 2 μM", "setting": "in vitro [5]", "value": "> 2.41", "unit": "days"}]}]}
